Values joined by “and” are separate entries in the source; they are usually repeats but may differ in a detail not shown here. Equal entries are not always repeated. Marks after values point to notes of the source that are not given here.

Series [1] is described as follows: Absorption spectroscopy (UV/Vis). It is filed as physicochemical. As for the experimental part: (§1) Absorption spectra were recorded with a Varian Cary 4000 UV-Vis double-beam spectrophotometer (Agilent Technologies, USA). For the determination of the absorption spectra, quartz cells with a 1 cm path length were used. Emission spectra and fluorescence quantum yield were obtained on a Quantaurus-QY Absolute PL quantum yield spectrometer C11347 (Hamamatsu Photonics, Japan) or on a Varian Cary Eclipse fluorescence spectrometer (Agilent Technologies, USA).

Series [2] is described as follows: Emission spectra and fluorescence quantum yield. The series is classed as physicochemical. How it is done: as §1
The next series is described as follows: Fluorescence lifetime. It is filed as physicochemical.
Series [3] has as its system tubulin filaments in a methanol-fixed Vero cell. In words: Confocal and STED imaging of immunolabelled tubulin filaments. The series is classed as cell-based. Set-up: key to verified as a label in STED microscopy: verified as a label in super-resolution microscopy based on stimulated emission depletion (STED with 775 nm STED laser). How it is done:
(§2) STED and confocal counterpart images were acquired using the commercially available two-color STED 775 quad scanning microscope from Abberior Instruments (Gottingen, Germany) equipped with an Olympus IX83 microscope stand and an Olympus UplanSApo 100×/1.4 OIL objective. Dyes were excited respective their excitation; the STED laser was pulsed at 775 nm.
(§3) For these experiments, STED optical microscopy was performed as indicated above.
Tubulin was marked using a mouse monoclonal primary antibody against alpha-tubulin together with secondary antibody detection (sheep-anti-mouse conjugated with the dye 23-NHS). 23 was excited using a pulsed 485 nm laser. Fluorescence was detected in both available detection channels (605-625 nm, 655-715nm) and summed up for the final images. Scale bar: 4 μm; pixel dwell time: 10 μs; pixel size: 25 nm for both the STED and the confocal image. Each line in the STED channel was scanned twice, and the counts were accumulated.

In series [4] the test system is vimentin-HaloTag fusion protein in a living HeLa cell. Nature of the series: Confocal and STED imaging of vimentin-HaloTag in living cells. The series is classed as cell-based. Further details: key to verified as a label in STED microscopy: verified as a label in super-resolution microscopy based on stimulated emission depletion (STED with 775 nm STED laser). As for the experimental part: as §2, §3
The vimentin-HaloTag was labeled with 16-Halo (1 μM for 20 min at growth conditions, 10 min wash) and excited using a pulsed 594 nm laser. Fluorescence was detected in both available detection channels (605-625 nm, 655-715nm) and summed up for the final images. Scale bar: 4 μm; pixel dwell time: 10 μs; pixel size: 20 nm for both the STED and the confocal image. Each line was scanned four times, and the counts were accumulated.

Turning to `COP(=O)([c+]1c2ccc(N(C)C)cc2sc2cc(N(C)C)ccc21)N(C(C)C)C(C)C.O=C([O-])C(F)(F)F` (stereo not shown) [Compound 21, 9-[(Diisopropylamino)(methoxy)phosphoryl]-3,6-bis(dimethylamino)-9H-thioxanthen-9-ylium trifluoroacetate], in series [1] (in acetonitrile), the Absorption max. came to 654 nm and the “ε at absorption max.” value stood at 64000 M⁻¹ cm⁻¹. Further, in series [2] (in acetonitrile), the Emission max. was 728 nm; the “QY (fluorescence quantum yield, Φfl)” value is on record as 0.10; the Stokes shift is 74^a nm. Further, the Stability result in “Stability of the dyes” is “moderate”. The same molecule had a fluorescence lifetime in “Fluorescence lifetime” (in acetonitrile) of 0.77 ns.
With `CN(C)c1ccc2c([PH](=O)O)c3ccc(N(C)C)cc3[n+](CCCC(=O)O)c2c1.O=C([O-])C(F)(F)F` [Compound 23, 10-(3-Carboxypropyl)-3,6-bis(dimethylamino)-9-(hydroxyhydrophosphoryl)acridinium trifluoroacetate], the “verified as a label in STED microscopy” value in series [3] (STED with 775 nm STED laser) was “f”. Moreover, the Absorption max. turned out to be 535 nm in series [1] (in aq. PBS, pH 7.4) and 527 nm in series [1] (in methanol). The “ε at absorption max.” value in series [1] (in aq. PBS, pH 7.4) was found to be 38000 M⁻¹ cm⁻¹; in series [1] (in methanol) it was 67000 M⁻¹ cm⁻¹. The “QY (fluorescence quantum yield, Φfl)” value in series [2] (in aq. PBS, pH 7.4) is 0.14 and 0.10; in series [2] (in methanol), 0.75. This molecule displayed an Emission max. in series [2] (in methanol) of 579 nm. This molecule returned a fluorescence lifetime in the series “Fluorescence lifetime” (in aq. PBS, pH 7.4) of 1.36 ns.
On to `CCN(CC)CC.CN(CCCCCC(=O)[O-])C(=O)CCP(=O)(O)c1c2ccc(N(C)C)cc2[o+]c2cc(N(C)C)ccc12` [Compound 16, Triethylammonium 6-[3-[[3,6-bis(dimethylamino)-9H-xanthenylium-9-yl]oxidophosphoryl]-N-methylpropanamido]hexanoate], for which, in series [1] (pH 7.4), the “ε at absorption max.” value was found to be 10750 M⁻¹ cm⁻¹. The “verified as a label in STED microscopy” value in series [4] (STED with 775 nm STED laser) is “good^f”. Besides, in series [2] (pH 7.4), the Emission max. was 636 nm and 636 ^ (0.30)^b nm; the Stokes shift is 33^b nm.
On to `CN(C)c1ccc2c(P(=O)([O-])CCC(=O)NCCOCCOCCCCCCCl)c3ccc(=[N+](C)C)cc-3oc2c1` [Compound 16-Halo, 3-[[2[2-(6-chlorohexyloxy)ethoxy]ethyl]amino]-3-oxopropyl[6-(dimethylamino)-3-(dimethyliminio)-3H-xanthen-9-yl]phosphinate], for which the “labelling of vimentin-HaloTag” value in series [4] (1 μM for 20 min at growth conditions, 10 min wash, excitation 594 nm) is recorded as “labeled”.
Turning to `CN(C)c1ccc2c([PH](=O)[O-])c3ccc(N(C)C)cc3[n+](CCCC(=O)ON3C(=O)CCC3=O)c2c1` [Compound 23-NHS, [10-(3-Carboxypropyl)-3,6-bis(dimethylamino)acridinium-9-yl]phosphinate NHS ester], in series [3] (sheep-anti-mouse antibody conjugated with the dye, excitation 485 nm), the “labelling of tubulin via secondary antibody conjugate” value is “marked”.

The record behind these values is patent US10174202B2, “Dyes with phosphinic acid, phosphinate, phosphonate and phosphonamidate substituents as auxochromic groups and methods for preparing the same” (Max-Planck-Gesellschaft zur Foerderung der Wissenschaften …, priority 2017, dated 2019).
